Measured values from ChEMBL document CHEMBL2057164, “Head-to-head prenyl tranferases: anti-infective drug targets” (J Med Chem, 2012).

Test: Inhibition of Trypanosoma cruzi squalene synthase

## CC(C)=CCC/C(C)=C/CNCCNC1C2CC3CC(C2)CC1C3 (stereo unspecified) [SQ109]
  Ki: 1200 nM
